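Test compounds were applied to cells in 96-well plates for 48 hours at 5 doses. GI50 is the concentration that inhibits growth by half.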 Activity calls are given as the source filed them. Cut-off read from the data, not from the text of the source: active = GI50 up to about 1.1 µM and inactive = higher.

Test systems include MOLT-4; SK-OV-3; SK-MEL-28; HCT-116; HOP-62; NCI-H226; HCC 2998; LOX IMVI; HT-29; OVCAR-4; OVCAR-8; M19-MEL; ACHN; NCI-H522; KM12; Malme-3M; DU-145; MDA-MB-231; CAKI-1; HOP-92.
Holding throughout (test): NCI-60 cell line screen, 48 h

For the molecule `Cc1cccc2c1Sc1ccccc1C2NC(=O)CCN(C)C` (stereo not drawn), the GI50 in the test with MOLT-4, in the test on SK-OV-3, in the test with SK-MEL-28, in the test on HCT-116, in the test with HOP-62 and with NCI-H226 was > 100 µM (inactive) throughout. The GI50 in the test with HCC 2998, with LOX IMVI, in the test with HT-29, in the test with OVCAR-4, in the test on OVCAR-8 and in the test with M19-MEL was > 100 µM (inactive) throughout. Further, in the test on ACHN, the GI50 is > 100 µM (inactive).
As to `CCCCCCCCC[n+]1cccc(C2C(C(=O)OCC)=C(C)NC(C)=C2C(=O)OCC)c1`, the GI50 in the test on MOLT-4 was 3.98 µM (inactive); with SK-OV-3 it was 11.3 µM (inactive); in the test on SK-MEL-28, 2.44 µM (inactive); in the test with NCI-H522, 2.68 µM (inactive); in the test on HCT-116, 4 µM (inactive); in the test with KM12, 1.98 µM (inactive). The GI50 in the test on Malme-3M was 1.9 µM (inactive); in the test with HOP-62, 13 µM (inactive); with NCI-H226 it was 11.9 µM (inactive); in the test with DU-145 it was 11.6 µM (inactive); with HCC 2998 it was 6.01 µM (inactive); in the test on MDA-MB-231 it was 2.97 µM (inactive). Moreover, the GI50 in the test with LOX IMVI is 2.92 µM (inactive); in the test with HT-29 it was 3.96 µM (inactive); in the test on OVCAR-4, 6.9 µM (inactive); in the test on OVCAR-8, 3.39 µM (inactive); in the test with ACHN, 14.6 µM (inactive); in the test on CAKI-1, 13.6 µM (inactive). Besides, in the test on HOP-92, the GI50 was 1.95 µM (inactive).
As to `CCC1CN2CCc3cc(OC)c(OC)cc3C2CC1CC1c2cc(OC)c(OC)cc2CCN1C(=O)CNC(=O)OC(C)(C)C` (stereo not drawn), the GI50 is 3.44 µM (inactive) in the test with MOLT-4; 28.6 µM (inactive) in the test on SK-OV-3; 23.8 µM (inactive) in the test on SK-MEL-28; 3.31 µM (inactive) with KM12; 19.5 µM (inactive) in the test on Malme-3M; 18.3 µM (inactive) with NCI-H226. Also, the GI50 is 3.1 µM (inactive) with HCC 2998; 4.48 µM (inactive) with LOX IMVI; 3.49 µM (inactive) in the test with HT-29; 2.88 µM (inactive) with OVCAR-4; 5.64 µM (inactive) with OVCAR-8; 16.3 µM (inactive) with M19-MEL. For the same molecule, the GI50 with ACHN was 21.5 µM (inactive); in the test with CAKI-1, 21.7 µM (inactive).
In the case of `Cc1cc(C)nc(SCCc2cccc[n+]2C)n1`, the GI50 in the test on MOLT-4, in the test with SK-OV-3, with SK-MEL-28, with NCI-H522, in the test on HCT-116 and in the test with KM12 was > 100 µM (inactive) each time. The GI50 in the test with Malme-3M, with HOP-62, in the test on NCI-H226, in the test on DU-145, with HCC 2998 and in the test with MDA-MB-231 was > 100 µM (inactive) in each case. Moreover, the GI50 with LOX IMVI, in the test on HT-29, with OVCAR-4, in the test on OVCAR-8, in the test with ACHN and with CAKI-1 was > 100 µM (inactive) throughout. Besides, the GI50 in the test with HOP-92 was > 100 µM (inactive).
`O=C(Nc1ccc2ccccc2c1)c1cc2cc(CCl)ccc2oc1=O`: the GI50 was > 100 µM (inactive) in the test with MOLT-4; 38.5 µM (inactive) in the test with SK-OV-3; > 100 µM (inactive) in the test on SK-MEL-28; 74 µM (inactive) with NCI-H522; > 100 µM (inactive) in the test with HCT-116; > 100 µM (inactive) in the test on KM12. Further, the GI50 was 87.7 µM (inactive) with Malme-3M; 53.5 µM (inactive) in the test on HOP-62; 57.5 µM (inactive) in the test on NCI-H226; > 100 µM (inactive) in the test on DU-145; > 100 µM (inactive) in the test on HCC 2998; 49 µM (inactive) in the test on MDA-MB-231. For the same molecule, the GI50 in the test on LOX IMVI, in the test with HT-29, with OVCAR-4, with OVCAR-8, in the test on ACHN and with CAKI-1 was > 100 µM (inactive) each time. In addition, the GI50 in the test on HOP-92 was 51.5 µM (inactive).
Turning to `CC(=O)N(C(C)=O)c1ncc(-n2nc(-c3ccccc3)cc2-c2ccccc2)c(-c2ccccc2)n1`, the GI50 with MOLT-4 is 5.22 µM (inactive); in the test on SK-OV-3 it was > 10 µM (inactive); in the test on SK-MEL-28, > 10 µM (inactive); in the test on NCI-H522 it was > 10 µM (inactive); in the test with HCT-116 it was 4.82 µM (inactive); in the test with KM12 it was 6.17 µM (inactive). Besides, the GI50 with Malme-3M, with HOP-62, in the test with NCI-H226, in the test on DU-145, in the test with HCC 2998 and in the test with MDA-MB-231 was > 10 µM (inactive) in each case. Further, the GI50 with LOX IMVI is 6.73 µM (inactive); in the test on HT-29, 4.65 µM (inactive); with OVCAR-4, > 10 µM (inactive); with OVCAR-8, > 10 µM (inactive); in the test with ACHN, > 10 µM (inactive); with CAKI-1 it was > 10 µM (inactive). Further, the GI50 in the test on HOP-92 was > 10 µM (inactive).
For the molecule `COc1ccc2[nH]c(C(=O)N3CC(CCl)c4ccc(N)cc43)cc2c1` (stereo not drawn), the GI50 in the test on MOLT-4 is 0.165 µM (active); with SK-OV-3 it was 0.349 µM (active); in the test on SK-MEL-28 it was 0.368 µM (active); with NCI-H522, 0.0161 µM (active); in the test on HCT-116, 0.164 µM (active); in the test with KM12 it was 0.156 µM (active). Besides, the GI50 in the test with Malme-3M was 0.141 µM (active); in the test with HOP-62, 0.327 µM (active); in the test with NCI-H226, 0.32 µM (active); in the test on DU-145, 0.0551 µM (active); in the test with HCC 2998 it was 0.14 µM (active); in the test on MDA-MB-231, 0.202 µM (active). The GI50 with LOX IMVI is 0.177 µM (active); in the test on HT-29 it was 0.151 µM (active); in the test with OVCAR-4, 0.163 µM (active); in the test with OVCAR-8, 0.223 µM (active); with ACHN, 0.0728 µM (active); in the test with CAKI-1, 0.0877 µM (active). Moreover, the GI50 in the test with HOP-92 was 0.634 µM (active).
Consider `O=C1CSC(c2cccc(Cl)c2)N1c1ccc(-c2ccc(-n3c(-c4ccccc4)nc4ccccc4c3=O)cc2)cc1` (stereo not drawn), for which the GI50 in the test with MOLT-4 was 20.1 µM (inactive); in the test with SK-OV-3 it was > 100 µM (inactive); in the test on SK-MEL-28, 75.3 µM (inactive); in the test with NCI-H522, 41.6 µM (inactive); with HCT-116, 45.6 µM (inactive); with KM12 it was 22.3 µM (inactive). Besides, the GI50 is 46 µM (inactive) with Malme-3M; 67.8 µM (inactive) with HOP-62; 67 µM (inactive) in the test with NCI-H226; 53.7 µM (inactive) in the test with DU-145; 15.1 µM (inactive) in the test on HCC 2998; 50.6 µM (inactive) in the test with MDA-MB-231. The GI50 in the test on LOX IMVI is 35.1 µM (inactive); in the test on HT-29, 38.9 µM (inactive); with OVCAR-4, 35.1 µM (inactive); in the test with OVCAR-8, 46.1 µM (inactive); in the test on ACHN, 45.8 µM (inactive); in the test on CAKI-1 it was > 100 µM (inactive). Also, in the test on HOP-92, the GI50 is 17.1 µM (inactive).
On to `C/C(=N\N=C1/C(=O)OC(c2ccccc2)=C1C(=O)c1ccccc1)c1ccc([N+](=O)[O-])cc1`, for which the GI50 is 19.9 µM (inactive) in the test with MOLT-4; 85.3 µM (inactive) in the test with SK-OV-3; 54.7 µM (inactive) with SK-MEL-28; 27.7 µM (inactive) in the test with NCI-H522; 91.4 µM (inactive) with HCT-116; 86.3 µM (inactive) in the test on KM12. In addition, the GI50 in the test on Malme-3M was 37.4 µM (inactive); with HOP-62, > 100 µM (inactive); in the test with NCI-H226, 27.8 µM (inactive); in the test on DU-145 it was 44.4 µM (inactive); in the test with HCC 2998, 47.9 µM (inactive); in the test with MDA-MB-231, 79.3 µM (inactive). For the same molecule, the GI50 in the test with LOX IMVI is 34.8 µM (inactive); in the test with HT-29, 73.8 µM (inactive); in the test with OVCAR-4, 37.4 µM (inactive); in the test on OVCAR-8, 35.7 µM (inactive); in the test with ACHN, 42.6 µM (inactive); with CAKI-1, 48.2 µM (inactive). The GI50 in the test with HOP-92 was 20.5 µM (inactive).
As for `CCNC(=O)NNc1ncnc2c1c(-c1ccc(Cl)cc1)cn2-c1ccc(C)cc1`, the GI50 was 16.4 µM (inactive) in the test on MOLT-4; 27.4 µM (inactive) in the test on SK-OV-3; 18.9 µM (inactive) with SK-MEL-28; 17.9 µM (inactive) in the test with NCI-H522; 14.9 µM (inactive) in the test on HCT-116; 20.1 µM (inactive) in the test on KM12. Moreover, the GI50 was 18.8 µM (inactive) with Malme-3M; 20.4 µM (inactive) in the test on HOP-62; 20 µM (inactive) with NCI-H226; 21.5 µM (inactive) with DU-145; 17.5 µM (inactive) in the test with HCC 2998; 19.6 µM (inactive) with MDA-MB-231. In addition, the GI50 with LOX IMVI was 17.7 µM (inactive); in the test on HT-29, 18.3 µM (inactive); in the test with OVCAR-4 it was 11.5 µM (inactive); in the test with OVCAR-8, 15 µM (inactive); in the test on ACHN, 17.7 µM (inactive); in the test on CAKI-1, 25.4 µM (inactive). The GI50 in the test on HOP-92 is 18.2 µM (inactive).
With `Cc1nc(C)c(N2CCN(C#N)CC2)c(O)n1`, the GI50 with MOLT-4, in the test with SK-OV-3, in the test on SK-MEL-28, in the test with NCI-H522, in the test with HCT-116 and in the test on KM12 was > 100 µM (inactive) each time. Further, the GI50 with Malme-3M, in the test on HOP-62, in the test with NCI-H226, in the test with DU-145, in the test with HCC 2998 and with MDA-MB-231 was > 100 µM (inactive) throughout. The GI50 in the test on LOX IMVI was > 100 µM (inactive); in the test on HT-29, > 100 µM (inactive); in the test with OVCAR-4, > 100 µM (inactive); in the test with OVCAR-8, 93.3 µM (inactive); in the test with ACHN, > 100 µM (inactive); in the test with CAKI-1, > 100 µM (inactive). Moreover, the GI50 with HOP-92 is > 100 µM (inactive).

These data come from ChEMBL document CHEMBL1201862, “PubChem BioAssay data set” (2004).
